Source: ChEMBL document CHEMBL4219053, “Antiobesity and emetic effects of a short-length peptide YY analog and its PEGylated and alkylated derivatives” (Bioorg Med Chem, 2018)

How the values were obtained:
[1] = Cmax in dog at 0.01 mg/kg, sc administered as bolus; assay type: ADME, organism-based, Canis lupus familiaris; design: dose 0.01 mg/kg, route subcutaneous; details: in vivo
[2] = tested on: Canis familiaris; assay: Emetic effect in dog at 0.003 mg/kg/day, sc as infusion for 8 hrs; assay type: ADME, organism-based, Canis lupus familiaris; details: in vivo
[3] = Drug uptake in DIO C57BL/6J mouse serum at 0.01 mg/kg/day, sc for 2 weeks; assay type: ADME, organism-based; details: read-out: Drug uptake
[4] = tested on: Canis familiaris; assay: Emetic effect in Beagle dog at 0.01 mg/kg, sc measured after 1 hr; assay type: ADME, organism-based, Canis lupus familiaris; details: in vivo
[5] = tested on: Mus musculus; assay: Emetic effect in DIO C57BL/6J mouse at 0.01 mg/kg, sc for 2 weeks; assay type: ADME, organism-based; details: in vivo, 336 h
[6] = Cmax in dog at 0.01 mg/kg/day, sc administered as infusion after 8 hrs; assay type: ADME, organism-based, Canis lupus familiaris; design: dose 0.01 mg/kg/day, route subcutaneous; details: in vivo
[7] = Cmax in dog at 0.003 mg/kg/day, sc administered as infusion after 8 hrs; assay type: ADME, organism-based, Canis lupus familiaris; design: dose 0.003 mg/kg/day, route subcutaneous; details: in vivo
[8] = Tmax in Beagle dog at 0.01 mg/kg, sc; assay type: ADME, organism-based, Canis lupus familiaris; details: in vivo
[9] = Cmax in Beagle dog at 0.01 mg/kg, sc; assay type: ADME, organism-based, Canis lupus familiaris; design: dose 0.01 mg/kg, route subcutaneous; details: in vivo
[10] = tested on: Canis familiaris; assay: Emetic effect in Beagle dog at 0.01 mg/kg, sc measured after 1 to 24 hrs; assay type: organism-based, Canis lupus familiaris; details: in vivo

For `CC[C@](C)(NC(=O)[C@H]1C[C@H](O)CN1C(=O)[C@H](CO)NC(=O)c1c[nH]cn1)C(=O)N[C@@H](Cc1ccncc1)C(=O)N[C@@H](CC1CCCCC1)C(=O)N[C@@H](CC(C)(C)C)C(=O)N[C@@H](CC(N)=O)C(=O)N[C@@H](CCCCN)C(=O)NC(C)(C)C(=O)N[C@H](C(=O)N[C@@H](CCCNC(=N)N)C(=O)N[C@@H](CCC(N)=O)C(=O)N[C@@H](CCCNC(=N)N)C(=O)N[C@@H](CC1CCCCC1)C(N)=O)[C@@H](C)O`, the Cmax [1] was 2.9 ng/mL, the Activity [2] was “Toxic” and the concentration at 336 h [3] was 0.225 ng/mL. For the same compound, the Activity [4] was “Toxic”, the Activity [5] was “Toxic” and the Cmax [6] was 0.74 ng/mL. The Cmax [7] was 0.18 ng/mL, the Tmax [8] was 36 min and the Cmax [9] was 2.9 ng/mL. For the same compound, the Activity [10] was “Non-Toxic”.
